Assay results published in PubChem BioAssay AID2060504 (Molecular Pharmacology Branch, DTP, NCI, 2025).

Test system: 636577-100-R-J1-PDC complex spheroid viability
Test: Anticancer human tumor 636577-100-R-J1-PDC patient-derived endometrial adenocarcinoma cell line growth inhibition [GQUAD]
Conditions: for IC50: curve of first compound; for viability, T/C: stronger effect = lower value
How it was run: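 Multi-cell-type spheroids of tumor cells with HUVEC and mesenchymal stem cells, treated with drug combinations. Concentrations descend in half-log steps from near clinical Cmax, or from 10 microM where Cmax is unknown; viability read-out.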

[1] = second compound 0.0316 µM, first compound 0.0316 µM
[2] = second compound 0.0316 µM, first compound 0.1 µM
[3] = second compound 0.0316 µM, first compound 0.316 µM
[4] = second compound 0.0316 µM, first compound 1 µM
[5] = second compound 0.0316 µM, first compound 3.16 µM
[6] = second compound 0.0316 µM, first compound 10 µM
[7] = second compound 0.1 µM, first compound 0.0316 µM
[8] = second compound 0.1 µM, first compound 0.1 µM
[9] = second compound 0.1 µM, first compound 0.316 µM
[10] = second compound 0.1 µM, first compound 1 µM
[11] = second compound 0.1 µM, first compound 3.16 µM
[12] = second compound 0.1 µM, first compound 10 µM
[13] = second compound 0.316 µM, first compound 0.0316 µM
[14] = second compound 0.316 µM, first compound 0.1 µM
[15] = second compound 0.316 µM, first compound 0.316 µM
[16] = second compound 0.316 µM, first compound 1 µM
[17] = second compound 0.316 µM, first compound 3.16 µM
[18] = second compound 0.316 µM, first compound 10 µM
[19] = second compound 1 µM, first compound 0.0316 µM
[20] = second compound 1 µM, first compound 0.1 µM
[21] = second compound 1 µM, first compound 0.316 µM
[22] = second compound 1 µM, first compound 1 µM
[23] = second compound 1 µM, first compound 3.16 µM
[24] = second compound 1 µM, first compound 10 µM
[25] = second compound 3.16 µM, first compound 0.0316 µM
[26] = second compound 3.16 µM, first compound 0.1 µM
[27] = second compound 3.16 µM, first compound 0.316 µM
[28] = second compound 3.16 µM, first compound 1 µM
[29] = second compound 3.16 µM, first compound 3.16 µM
[30] = second compound 3.16 µM, first compound 10 µM
[31] = second compound 10 µM, first compound 0.0316 µM
[32] = second compound 10 µM, first compound 0.1 µM
[33] = second compound 10 µM, first compound 0.316 µM
[34] = second compound 10 µM, first compound 1 µM
[35] = second compound 10 µM, first compound 3.16 µM
[36] = second compound 10 µM, first compound 10 µM
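Note: viability read after seven days of drug exposure.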
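Throughout, for viability, T/C: luminescence signal used as a proxy for viable cells; 100% = DMSO vehicle control wells.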

Structure (SMILES): C#Cc1c(F)ccc2cc(O)cc(-c3ncc4c(N5CC6CCC(C5)N6)nc(OCC56CCCN5CC(F)C6)nc4c3F)c12 (stereo not drawn) + CN(C)c1ccc(Nc2c3ccc(NC(=O)CCN4CCCC4)cc3nc3cc(NC(=O)CCN4CCCC4)ccc23)cc1
- IC50 (second compound 0.0316 µM): 6.07 µM
- IC50 (second compound 0.1 µM): 3.23 µM
- IC50 (second compound 0.316 µM): 3.86 µM
- IC50 (second compound 1 µM): 2.43 µM
- IC50 (second compound 3.16 µM): < 0.0316 µM
- IC50 (second compound 10 µM): < 0.0316 µM
- viability, T/C [1]: 109%
- viability, T/C [2]: 84.1%
- viability, T/C [3]: 95.4%
- viability, T/C [4]: 69.9%
- viability, T/C [5]: 72.2%
- viability, T/C [6]: 37.2%
- viability, T/C [7]: 98.6%
- viability, T/C [8]: 94.3%
- viability, T/C [9]: 85.6%
- viability, T/C [10]: 68%
- viability, T/C [11]: 49.4%
- viability, T/C [12]: 42.5%
- viability, T/C [13]: 93%
- viability, T/C [14]: 99.3%
- viability, T/C [15]: 85.7%
- viability, T/C [16]: 62.1%
- viability, T/C [17]: 59.1%
- viability, T/C [18]: 34.9%
- viability, T/C [19]: 61%
- viability, T/C [20]: 75.2%
- viability, T/C [21]: 70.5%
- viability, T/C [22]: 61.8%
- viability, T/C [23]: 46.5%
- viability, T/C [24]: 29.8%
- viability, T/C [25]: 41.7%
- viability, T/C [26]: 37.2%
- viability, T/C [27]: 38%
- viability, T/C [28]: 36.4%
- viability, T/C [29]: 22.7%
- viability, T/C [30]: 15.7%
- viability, T/C [31]: 5.81%
- viability, T/C [32]: 4.81%
- viability, T/C [33]: 4.89%
- viability, T/C [34]: 3.78%
- viability, T/C [35]: 3.21%
- viability, T/C [36]: 0.66%

Structure (SMILES): C=CCn1c(=O)c2cnc(Nc3ccc(N4CCN(C)CC4)cc3)nc2n1-c1cccc(C(C)(C)O)n1 + CN(C)c1ccc(Nc2c3ccc(NC(=O)CCN4CCCC4)cc3nc3cc(NC(=O)CCN4CCCC4)ccc23)cc1
- IC50 (second compound 0.0316 µM): 0.598 µM
- IC50 (second compound 0.1 µM): 0.304 µM
- IC50 (second compound 0.316 µM): 0.382 µM
- IC50 (second compound 1 µM): 0.353 µM
- IC50 (second compound 3.16 µM): < 0.0316 µM
- IC50 (second compound 10 µM): < 0.0316 µM
- viability, T/C [1]: 88.3%
- viability, T/C [2]: 67.3%
- viability, T/C [3]: 81.4%
- viability, T/C [4]: 26.6%
- viability, T/C [5]: 15.9%
- viability, T/C [6]: 9.28%
- viability, T/C [7]: 107%
- viability, T/C [8]: 73.6%
- viability, T/C [9]: 51.7%
- viability, T/C [10]: 28.9%
- viability, T/C [11]: 15.1%
- viability, T/C [12]: 9.88%
- viability, T/C [13]: 88.3%
- viability, T/C [14]: 69.2%
- viability, T/C [15]: 57.7%
- viability, T/C [16]: 30.9%
- viability, T/C [17]: 15.2%
- viability, T/C [18]: 9.64%
- viability, T/C [19]: 48.6%
- viability, T/C [20]: 63%
- viability, T/C [21]: 52.1%
- viability, T/C [22]: 32%
- viability, T/C [23]: 19.2%
- viability, T/C [24]: 11.6%
- viability, T/C [25]: 37.6%
- viability, T/C [26]: 36.8%
- viability, T/C [27]: 30.9%
- viability, T/C [28]: 23.8%
- viability, T/C [29]: 16.5%
- viability, T/C [30]: 10.8%
- viability, T/C [31]: 5.9%
- viability, T/C [32]: 4.13%
- viability, T/C [33]: 3.79%
- viability, T/C [34]: 3.8%
- viability, T/C [35]: 2.91%
- viability, T/C [36]: 0.74%

Structure (SMILES): CC(C)(O)C1CCC(Nc2ccc3ncc(-c4cccc(C(F)(F)F)c4)n3n2)CC1 (stereo not drawn) + CN(C)c1ccc(Nc2c3ccc(NC(=O)CCN4CCCC4)cc3nc3cc(NC(=O)CCN4CCCC4)ccc23)cc1
- IC50 (second compound 0.0316 µM): 2.08 µM
- IC50 (second compound 0.1 µM): 1.45 µM
- IC50 (second compound 0.316 µM): 1.58 µM
- IC50 (second compound 1 µM): 1.52 µM
- IC50 (second compound 3.16 µM): < 0.0316 µM
- IC50 (second compound 10 µM): < 0.0316 µM
- viability, T/C [1]: 107%
- viability, T/C [2]: 82%
- viability, T/C [3]: 104%
- viability, T/C [4]: 77.6%
- viability, T/C [5]: 34.6%
- viability, T/C [6]: 33.8%
- viability, T/C [7]: 83.9%
- viability, T/C [8]: 59.2%
- viability, T/C [9]: 109%
- viability, T/C [10]: 57.8%
- viability, T/C [11]: 30%
- viability, T/C [12]: 37.2%
- viability, T/C [13]: 69.3%
- viability, T/C [14]: 57.9%
- viability, T/C [15]: 96.7%
- viability, T/C [16]: 63.6%
- viability, T/C [17]: 30.6%
- viability, T/C [18]: 28.1%
- viability, T/C [19]: 77.2%
- viability, T/C [20]: 54.1%
- viability, T/C [21]: 66.5%
- viability, T/C [22]: 63.6%
- viability, T/C [23]: 26.4%
- viability, T/C [24]: 22.2%
- viability, T/C [25]: 41.3%
- viability, T/C [26]: 46.2%
- viability, T/C [27]: 40.6%
- viability, T/C [28]: 33.5%
- viability, T/C [29]: 15.8%
- viability, T/C [30]: 9.06%
- viability, T/C [31]: 5.85%
- viability, T/C [32]: 5.51%
- viability, T/C [33]: 5.56%
- viability, T/C [34]: 4.55%
- viability, T/C [35]: 1.2%
- viability, T/C [36]: 0.47%

Structure (SMILES): O=C(NO)c1cnc(N2CCN(S(=O)(=O)c3ccc4ccccc4c3)CC2)nc1 + CN(C)c1ccc(Nc2c3ccc(NC(=O)CCN4CCCC4)cc3nc3cc(NC(=O)CCN4CCCC4)ccc23)cc1
- IC50 (second compound 0.0316 µM): < 0.0316 µM
- IC50 (second compound 0.1 µM): < 0.0316 µM
- IC50 (second compound 0.316 µM): < 0.0316 µM
- IC50 (second compound 1 µM): < 0.0316 µM
- IC50 (second compound 3.16 µM): < 0.0316 µM
- IC50 (second compound 10 µM): < 0.0316 µM
- viability, T/C [1]: 30.3%
- viability, T/C [2]: 14.9%
- viability, T/C [3]: 6.37%
- viability, T/C [4]: 6.45%
- viability, T/C [5]: 0.17%
- viability, T/C [6]: 0.08%
- viability, T/C [7]: 34.5%
- viability, T/C [8]: 15.9%
- viability, T/C [9]: 6.15%
- viability, T/C [10]: 6.73%
- viability, T/C [11]: 0.15%
- viability, T/C [12]: 0.08%
- viability, T/C [13]: 30.4%
- viability, T/C [14]: 18.8%
- viability, T/C [15]: 6.26%
- viability, T/C [16]: 5.85%
- viability, T/C [17]: 0.15%
- viability, T/C [18]: 0.1%
- viability, T/C [19]: 26.3%
- viability, T/C [20]: 15.7%
- viability, T/C [21]: 7.08%
- viability, T/C [22]: 7.15%
- viability, T/C [23]: 0.24%
- viability, T/C [24]: 0.08%
- viability, T/C [25]: 25.1%
- viability, T/C [26]: 15.6%
- viability, T/C [27]: 8.28%
- viability, T/C [28]: 6.85%
- viability, T/C [29]: 0.21%
- viability, T/C [30]: 0.08%
- viability, T/C [31]: 7.11%
- viability, T/C [32]: 4.48%
- viability, T/C [33]: 5.08%
- viability, T/C [34]: 6.28%
- viability, T/C [35]: 0.12%
- viability, T/C [36]: 0.08%
